Results on 22 compounds are retold here after US20100076015A1, “Aminopyridine Derivatives” (VANTIA LIMITED, priority 2008, published 2010).

A word on the IC50: it is the point on the concentration scale where inhibition reaches its midpoint. Lower therefore signals greater potency.

The target in the experiment is T1, Human KLK1 (Homo sapiens, UniProt P06870).
T1 construct: purchased Callbiochem (Calbiochem)
T1 sequence (P06870 25-262): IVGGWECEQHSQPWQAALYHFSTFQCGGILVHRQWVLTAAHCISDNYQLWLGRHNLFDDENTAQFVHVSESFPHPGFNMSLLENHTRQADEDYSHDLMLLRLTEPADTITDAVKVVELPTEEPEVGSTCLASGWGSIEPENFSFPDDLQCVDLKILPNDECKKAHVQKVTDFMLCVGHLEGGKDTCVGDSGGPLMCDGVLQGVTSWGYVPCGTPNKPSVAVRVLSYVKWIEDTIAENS
The experiment can be described thus: Determination of the IC50 for KLK1 (fluorogenic substrate H-DVal-Leu-Arg-AFC). To be noted: 37° C. The experiment is classed as biochemical. The essentials: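 hKLK1 + H-DVal-Leu-Arg-AFC, 37° C, varied cpd conc. Initial rate by A410 change → residual activity → IC50.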
`Cc1c[nH]c(C(=O)N[C@@H](Cc2cccc(Cl)c2)C(=O)NCc2ccc(N)nc2)c1` [Example 259, 4-Methyl-1H-pyrrole-2-carboxylic acid [(S)-1-[(6-amino-pyridin-3-ylmethyl)-carbamoyl]-2-(3-chloro-phenyl)-ethyl]-amide] showed a 50% inhibitory concentration (IC50) of 85.4 nM.
In turn, `Cc1c[nH]c(C(=O)N[C@@H](Cc2ccc(F)cc2)C(=O)NCc2ccc(N)nc2)c1` [Example 260, 4-Methyl-1H-pyrrole-2-carboxylic acid [(S)-1-[(6-amino-pyridin-3-ylmethyl)-carbamoyl]-2-(4-fluoro-phenyl)-ethyl]-amide] showed a 50% inhibitory concentration (IC50) of 150 nM. Against the preceding compound, the IC50 is about 1.8-fold higher.
`Cc1cc[nH]c1C(=O)N[C@@H](Cc1ccc(F)cc1)C(=O)NCc1ccc(N)nc1` [Example 261, 3-Methyl-1H-pyrrole-2-carboxylic acid [(S)-1-[(6-amino-pyridin-3-ylmethyl)-carbamoyl]-2-(4-fluoro-phenyl)-ethyl]-amide]: the IC50 stood at 13.2 nM.
Compound `Cc1cc[nH]c1C(=O)N[C@@H](Cc1ccccc1Cl)C(=O)NCc1ccc(N)nc1` [Example 262, 3-Methyl-1H-pyrrole-2-carboxylic acid [(S)-1-[(6-amino-pyridin-3-ylmethyl)-carbamoyl]-2-(2-chloro-phenyl)-ethyl]-amide] had a half-maximal inhibitory concentration (IC50) of 28.3 nM.
With `Cc1cc[nH]c1C(=O)N[C@@H](Cc1cc(Cl)ccc1Cl)C(=O)NCc1ccc(N)nc1` [Example 263, 3-Methyl-1H-pyrrole-2-carboxylic acid [(S)-1-[(6-amino-pyridin-3-ylmethyl)-carbamoyl]-2-(2,5-dichloro-phenyl)-ethyl]-amide] the figure was 20.5 nM; with `Cc1cc[nH]c1C(=O)N[C@@H](Cc1ccc(Cl)c(Cl)c1)C(=O)NCc1ccc(N)nc1` [Example 264, 3-Methyl-1H-pyrrole-2-carboxylic acid [(S)-1-[(6-amino-pyridin-3-ylmethyl)-carbamoyl]-2-(3,4-dichloro-phenyl)-ethyl]-amide], 3.1 nM; with `Cc1cc[nH]c1C(=O)N[C@@H](Cc1ccccc1F)C(=O)NCc1ccc(N)nc1` [Example 265, 3-Methyl-1H-pyrrole-2-carboxylic acid [(S)-1-[(6-amino-pyridin-3-ylmethyl)-carbamoyl]-2-(2-fluoro-phenyl)-ethyl]-amide], 21.6 nM.
`Cc1cc[nH]c1C(=O)N[C@@H](Cc1cccc(Cl)c1)C(=O)NCc1ccc(N)nc1` [Example 266, 3-Methyl-1H-pyrrole-2-carboxylic acid [(S)-1-[(6-amino-pyridin-3-ylmethyl)-carbamoyl]-2-(3-chloro-phenyl)-ethyl]-amide] showed an IC50 of 5.7 nM.
The same measure for `Cc1cc[nH]c1C(=O)N[C@@H](Cc1ccc(Cl)cc1)C(=O)NCc1ccc(N)nc1` [Example 267, 3-Methyl-1H-pyrrole-2-carboxylic acid [(S)-1-[(6-amino-pyridin-3-ylmethyl)-carbamoyl]-2-(4-chloro-phenyl)-ethyl]-amide]: 8.2 nM; for `Cc1cccc(C[C@H](NC(=O)c2[nH]ccc2C)C(=O)NCc2ccc(N)nc2)c1` [Example 268, 3-Methyl-1H-pyrrole-2-carboxylic acid {(S)-1-[(6-amino-pyridin-3-ylmethyl)-carbamoyl]-2-m-tolyl-ethyl}-amide]: 7.7 nM; for `Cc1cc[nH]c1C(=O)N[C@@H](Cc1cccc(F)c1)C(=O)NCc1ccc(N)nc1` [Example 269, 3-Methyl-1H-pyrrole-2-carboxylic acid [(S)-1-[(6-amino-pyridin-3-ylmethyl)-carbamoyl]-2-(3-fluoro-phenyl)-ethyl]-amide]: 26.1 nM.
The compound `Cc1cc[nH]c1C(=O)N[C@@H](Cc1cc(F)cc(F)c1)C(=O)NCc1ccc(N)nc1` [Example 270, 3-Methyl-1H-pyrrole-2-carboxylic acid [(S)-1-[(6-amino-pyridin-3-ylmethyl)-carbamoyl]-2-(3,5-difluoro-phenyl)-ethyl]-amide] yielded an IC50 of 20.9 nM.
Compound `Cc1cc[nH]c1C(=O)N[C@@H](Cc1cccc(C(F)(F)F)c1)C(=O)NCc1ccc(N)nc1` [Example 271, 3-Methyl-1H-pyrrole-2-carboxylic acid [(S)-1-[(6-amino-pyridin-3-ylmethyl)-carbamoyl]-2-(3-trifluoromethyl-phenyl)-ethyl]-amide] gave an IC50 of 3.3 nM.
The compound `Cc1cc[nH]c1C(=O)N[C@@H](CC1CCCCC1)C(=O)NCc1ccc(N)nc1` [Example 273, 3-Methyl-1H-pyrrole-2-carboxylic acid {(S)-1-[(6-amino-pyridin-3-ylmethyl)-carbamoyl]-2-cyclohexyl-ethyl}-amide] had an IC50 of 375 nM.
As for `COC(=O)c1ccc(C(=O)N[C@@H](Cc2cccc(C(F)(F)F)c2)C(=O)NCc2ccc(N)nc2)[nH]1` [Example 274, 5-[(S)-1-[(6-Amino-pyridin-3-ylmethyl)-carbamoyl]-2-(3-trifluoromethyl-phenyl)-ethylcarbamoyl]-1H-pyrrole-2-carboxylic acid methyl ester], half-maximal inhibition (IC50) required 4.8 nM.
With `Nc1ccc(CNC(=O)[C@H](Cc2cccc(C(F)(F)F)c2)NC(=O)c2ccc(C(=O)O)[nH]2)cn1` [Example 275, 5-[(S)-1-[(6-Amino-pyridin-3-ylmethyl)-carbamoyl]-2-(3-trifluoromethyl-phenyl)-ethylcarbamoyl]-1H-pyrrole-2-carboxylic acid], the IC50 was found to be 147 nM.
Regarding `Cc1cc(C(=O)O)[nH]c1C(=O)N[C@@H](Cc1cccc(C(F)(F)F)c1)C(=O)NCc1ccc(N)nc1` [Example 276, 5-[(S)-1-[(6-Amino-pyridin-3-ylmethyl)-carbamoyl]-2-(3-trifluoromethyl-phenyl)-ethylcarbamoyl]-4-methyl-1H-pyrrole-2-carboxylic acid], the 50% inhibitory concentration (IC50) was found to be 30.5 nM. This IC50 is about 4.8-fold lower than that of the compound before.
Compound `Cc1cc(C)c(C(=O)N[C@@H](Cc2cccc3ccccc23)C(=O)NCc2ccc(N)nc2C)[nH]1` [Example 278, 3,5-Dimethyl-1H-pyrrole-2-carboxylic acid {(S)-1-[(6-amino-2-methyl-pyridin-3-ylmethyl)-carbamoyl]-2-naphthalen-1-yl-ethyl}-amide] displayed an IC50 of 3.2 nM.
The same measure for `Cc1cc(C)c(C(=O)N[C@@H](Cc2cccc(Cl)c2)C(=O)NCc2ccc(N)nc2C)[nH]1` [Example 279, 3,5-Dimethyl-1H-pyrrole-2-carboxylic acid [(S)-1-[(6-amino-2-methyl-pyridin-3-ylmethyl)-carbamoyl]-2-(3-chloro-phenyl)-ethyl]-amide]: 4.5 nM; for `Cc1cc(C)c(C(=O)N[C@@H](Cc2ccc(Cl)c(Cl)c2)C(=O)NCc2ccc(N)nc2C)[nH]1` [Example 280, 3,5-Dimethyl-1H-pyrrole-2-carboxylic acid [(S)-1-[(6-amino-2-methyl-pyridin-3-ylmethyl)-carbamoyl]-2-(3,4-dichloro-phenyl)-ethyl]-amide]: 1.9 nM.
With `Cc1cccc(C[C@H](NC(=O)c2[nH]c(C)cc2C)C(=O)NCc2ccc(N)nc2C)c1` [Example 281, 3,5-Dimethyl-1H-pyrrole-2-carboxylic acid {(S)-1-[(6-amino-2-methyl-pyridin-3-ylmethyl)-carbamoyl]-2-m-tolyl-ethyl}-amide] the figure was 1.8 nM.
`Cc1cc(C)c(C(=O)N[C@@H](Cc2ccccc2C(F)(F)F)C(=O)NCc2ccc(N)nc2C)[nH]1` [Example 282, 3,5-Dimethyl-1H-pyrrole-2-carboxylic acid [(S)-1-[(6-amino-2-methyl-pyridin-3-ylmethyl)-carbamoyl]-2-(2-trifluoromethyl-phenyl)-ethyl]-amide] displayed an IC50 of 1.3 nM.
